Tested on: 994946-033-R-J1-PDC complex spheroid viability
Test: Anticancer human tumor 994946-033-R-J1-PDC patient-derived melanoma cell line growth inhibition [POLQ]
Conditions: for IC50: curve of first compound; for viability, T/C: stronger effect = lower value
Procedure: Multicellular complex tumor spheroid response to Polymerase (POL) inhibitors (novobiocin, ART-558, RP6685) in combination with a variety of drugs and investigational agents in selected tumor cell lines
The POL inhibitors (novobiocin, ART-558, and RP6685) were evaluated both individually and in combination with standard of care and investigational anticancer small molecules within a complex spheroid model of solid tumors. . Complex spheroids include a stromal component modeled by human endothelial cells (HUVEC) and fibroblasts modeled by human mesenchymal stem cells (MSCs). The concentration ranges selected for each drug and investigational agent were based upon clinically achievable concentrations if the clinical Cmax of the agent was known.
Compounds. The drugs and investigational agents: novobiocin (NSC847541), ART-558 (NSC835418), RP-6685 (NSC848927), peposertib (NSC802822), ceralasertib (NSC780249), elimusertib (NSC800525), camonsertib (NSC841442), AZD-1390 (NSC803789), olaparib (NSC753686), talazoparib (NSC767125), rucaparib (NSC756644), sotorasib (NSC818433), MRTX-1133 (NSC836407), SN-38 (NSC673596), topotecan (NSC609699), epotoside (NSC141540), doxorubicin (NSC123127), gemcitabine (NSC613327), 5-fluorouracil (NSC19893), paclitaxel (NSC125973), vemurafenib (NSC761431), MSA-2 (NSC828583), SN-011 (NSC837082), adavosertib (NSC754352), prexasertib (NSC758257), carboplatin (NSC241240) and oxaliplatin (NSC266046), were obtained from the National Cancer Institute (NCI) Developmental Therapeutics Program Chemical Repository (21). The FDA-approved anticancer drug set is available from the Developmental Therapeutics Program at https://dtp.cancer.gov/organization/dscb/obtaining/. […] The stock solutions were prepared in dimethyl sulfoxide (DMSO, Sigma-Aldrich, St. Louis, MO, cat. D2650), except for the platinum compounds which were prepared in saline (Quality Biological, Gaithersburg, MD, cat. 114-055-101), at 800-fold the tested concentration and stored at -70 degrees C prior to their use. All drugs and investigational agents were tested over a range starting from a high concentration at or near the clinical Cmax and decreasing in half-log increments. If the clinical Cmax for an agent had not been determined, the highest concentration tested was 10 microM, except for SN-38, which was tested at a high concentration of 1 microM.
Cell Culture. All cells were maintained in an incubator at 37 degrees C and 5% CO2 with 95% humidity. The PDC lines were cultured according to standard operating procedures established by the NCI PDMR (https://pdmr.cancer.gov). Table 3 of the manuscript, lists the cell lines along with the number of the three cell types plated to form the mct-spheroids and media for tumor cell growth. After thawing, all PDC lines, except 997537-175-T-J1-PDC and 415267-285-R-J2-PDC, were cultured in Matrigel-coated flasks prepared with a working solution of 1X Ham's F-12 nutrient mix, without supplementation (Thermo Fisher Scientific, cat. 11765054), 100 U/mL penicillin-streptomycin (Thermo Fisher Scientific, cat. 15140122), and 2.5% Matrigel (Corning Inc., Corning, NY, cat. 354248) for the first three passages. The two PDC lines 997537-175-T-J1-PDC and 415267-285-R-J2-PDC were cultured on uncoated flasks. The 857933-349-R-J2-PDC line was cultured in 6C/Colon 1B media containing advanced DMEM/F-12 (Thermo Fisher Scientific, cat. 12634028), 10 mM HEPES (Thermo Fisher Scientific, cat. 15630080), 1X GlutaMAX supplement (Thermo Fisher Scientific, cat. 35050061), 0.1 mg/mL primocin (InvivoGen, San Diego, CA, cat. ant-pm-2), 10% defined fetal bovine serum, heat inactivated (HyClone Laboratories Inc., Logan, UT, cat. SH30070.03HI), 50% L-WRN conditioned media (ATCC, cat. CRL-3276), 1.25 mM N-Acetyl-L-cysteine (Sigma-Aldrich, cat. A9165), 10 mM nicotinamide (Sigma-Aldrich, cat. N0636), 1X B-27 supplement (Thermo Fisher Scientific, cat. 17504044), 1X N-2 supplement (Thermo Fisher Scientific, cat. […]
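Note: spheroids exposed to drugs for 7 days.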
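Throughout, for viability, T/C: 100% = DMSO vehicle treated spheroids.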

CC(=O)O[C@H]1C(=O)[C@@]2(C)[C@H]([C@H](OC(=O)c3ccccc3)[C@]3(O)C[C@H](OC(=O)[C@H](O)[C@@H](NC(=O)c4ccccc4)c4ccccc4)C(C)=C1C3(C)C)[C@]1(OC(C)=O)CO[C@@H]1C[C@@H]2O + COC1C(OC(N)=O)C(O)C(Oc2ccc3c(O)c(NC(=O)c4ccc(O)c(CC=C(C)C)c4)c(=O)oc3c2C)OC1(C)C showed an IC50 (second compound 0.0316 µM) of under 9.49 nM, an IC50 (second compound 0.1 µM) of under 9.49 nM and an IC50 (second compound 0.316 µM) of under 9.49 nM. It also gave an IC50 (second compound 1 µM) of under 9.49 nM, an IC50 (second compound 3.16 µM) of under 9.49 nM and an IC50 (second compound 10 µM) of under 9.49 nM. It also gave a viability, T/C (second compound 0.0316 µM, first compound 0.00949 µM) of 23.9%, a viability, T/C (second compound 0.0316 µM, first compound 0.03 µM) of 25.3% and a viability, T/C (second compound 0.0316 µM, first compound 0.0949 µM) of 16.4%. It also gave a viability, T/C (second compound 0.0316 µM, first compound 0.3 µM) of 12.5%, a viability, T/C (second compound 0.0316 µM, first compound 0.949 µM) of 12% and a viability, T/C (second compound 0.0316 µM, first compound 3 µM) of 10.4%. For the same compound, the viability, T/C (second compound 0.1 µM, first compound 0.00949 µM) was 24.4%, the viability, T/C (second compound 0.1 µM, first compound 0.03 µM) was 20.5% and the viability, T/C (second compound 0.1 µM, first compound 0.0949 µM) was 14.5%. It also gave a viability, T/C (second compound 0.1 µM, first compound 0.3 µM) of 11.9%, a viability, T/C (second compound 0.1 µM, first compound 0.949 µM) of 14.2% and a viability, T/C (second compound 0.1 µM, first compound 3 µM) of 9.19%. For the same compound, the viability, T/C (second compound 0.316 µM, first compound 0.00949 µM) was 20.4%, the viability, T/C (second compound 0.316 µM, first compound 0.03 µM) was 23.3% and the viability, T/C (second compound 0.316 µM, first compound 0.0949 µM) was 23.7%. It also gave a viability, T/C (second compound 0.316 µM, first compound 0.3 µM) of 17.2%, a viability, T/C (second compound 0.316 µM, first compound 0.949 µM) of 15.4% and a viability, T/C (second compound 0.316 µM, first compound 3 µM) of 14.9%. The viability, T/C (second compound 1 µM, first compound 0.00949 µM) was 22.8%, the viability, T/C (second compound 1 µM, first compound 0.03 µM) was 18% and the viability, T/C (second compound 1 µM, first compound 0.0949 µM) was 17.1%. It also gave a viability, T/C (second compound 1 µM, first compound 0.3 µM) of 18.5%, a viability, T/C (second compound 1 µM, first compound 0.949 µM) of 14.7% and a viability, T/C (second compound 1 µM, first compound 3 µM) of 10.9%. The viability, T/C (second compound 3.16 µM, first compound 0.00949 µM) was 23.8%, the viability, T/C (second compound 3.16 µM, first compound 0.03 µM) was 20.4% and the viability, T/C (second compound 3.16 µM, first compound 0.0949 µM) was 19.9%. For the same compound, the viability, T/C (second compound 3.16 µM, first compound 0.3 µM) was 15.4%, the viability, T/C (second compound 3.16 µM, first compound 0.949 µM) was 15.1% and the viability, T/C (second compound 3.16 µM, first compound 3 µM) was 11.3%. It also gave a viability, T/C (second compound 10 µM, first compound 0.00949 µM) of 21.5%, a viability, T/C (second compound 10 µM, first compound 0.03 µM) of 26% and a viability, T/C (second compound 10 µM, first compound 0.0949 µM) of 16.2%. It also gave a viability, T/C (second compound 10 µM, first compound 0.3 µM) of 12.8%, a viability, T/C (second compound 10 µM, first compound 0.949 µM) of 14.9% and a viability, T/C (second compound 10 µM, first compound 3 µM) of 8.96%.
Compound CC1COCCN1c1cc(C2(O)CC3CCC(C2)O3)c2cnn(-c3ccn[nH]3)c2n1 (centres undefined) + Nc1ccc(C#CCN(C(=O)Cc2ncc(C(F)(F)F)cc2C(F)(F)F)c2ccc(F)cc2)nn1 has an IC50 (second compound 0.0316 µM) of 51.3 nM, an IC50 (second compound 0.1 µM) of under 31.6 nM and an IC50 (second compound 0.316 µM) of under 31.6 nM. It also gave an IC50 (second compound 1 µM) of 68.7 nM, an IC50 (second compound 3.16 µM) of 38.6 nM and an IC50 (second compound 10 µM) of under 31.6 nM. It also gave a viability, T/C (second compound 0.0316 µM, first compound 0.0316 µM) of 59.9%, a viability, T/C (second compound 0.0316 µM, first compound 0.1 µM) of 36.3% and a viability, T/C (second compound 0.0316 µM, first compound 0.316 µM) of 23.4%. For the same compound, the viability, T/C (second compound 0.0316 µM, first compound 1 µM) was 18.8%, the viability, T/C (second compound 0.0316 µM, first compound 3.16 µM) was 13.9% and the viability, T/C (second compound 0.0316 µM, first compound 10 µM) was 6.85%. The viability, T/C (second compound 0.1 µM, first compound 0.0316 µM) was 43.3%, the viability, T/C (second compound 0.1 µM, first compound 0.1 µM) was 27.6% and the viability, T/C (second compound 0.1 µM, first compound 0.316 µM) was 24.2%. For the same compound, the viability, T/C (second compound 0.1 µM, first compound 1 µM) was 19.9%, the viability, T/C (second compound 0.1 µM, first compound 3.16 µM) was 10.6% and the viability, T/C (second compound 0.1 µM, first compound 10 µM) was 9.96%. For the same compound, the viability, T/C (second compound 0.316 µM, first compound 0.0316 µM) was 48.5%, the viability, T/C (second compound 0.316 µM, first compound 0.1 µM) was 24.9% and the viability, T/C (second compound 0.316 µM, first compound 0.316 µM) was 26.3%. For the same compound, the viability, T/C (second compound 0.316 µM, first compound 1 µM) was 19.6%, the viability, T/C (second compound 0.316 µM, first compound 3.16 µM) was 17.6% and the viability, T/C (second compound 0.316 µM, first compound 10 µM) was 9.49%. The viability, T/C (second compound 1 µM, first compound 0.0316 µM) was 74.5%, the viability, T/C (second compound 1 µM, first compound 0.1 µM) was 31.9% and the viability, T/C (second compound 1 µM, first compound 0.316 µM) was 33.7%. It also gave a viability, T/C (second compound 1 µM, first compound 1 µM) of 10.7%, a viability, T/C (second compound 1 µM, first compound 3.16 µM) of 13% and a viability, T/C (second compound 1 µM, first compound 10 µM) of 9.29%. For the same compound, the viability, T/C (second compound 3.16 µM, first compound 0.0316 µM) was 55.6%, the viability, T/C (second compound 3.16 µM, first compound 0.1 µM) was 22.8% and the viability, T/C (second compound 3.16 µM, first compound 0.316 µM) was 19.8%. For the same compound, the viability, T/C (second compound 3.16 µM, first compound 1 µM) was 21.4%, the viability, T/C (second compound 3.16 µM, first compound 3.16 µM) was 17.8% and the viability, T/C (second compound 3.16 µM, first compound 10 µM) was 8.76%. For the same compound, the viability, T/C (second compound 10 µM, first compound 0.0316 µM) was 38.3%, the viability, T/C (second compound 10 µM, first compound 0.1 µM) was 54.1% and the viability, T/C (second compound 10 µM, first compound 0.316 µM) was 24.6%. For the same compound, the viability, T/C (second compound 10 µM, first compound 1 µM) was 23.6%, the viability, T/C (second compound 10 µM, first compound 3.16 µM) was 14.6% and the viability, T/C (second compound 10 µM, first compound 10 µM) was 5.15%.

Reference: PubChem BioAssay AID1963827 (Molecular Pharmacology Branch, DTP, NCI, 2024)
